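Values below derive from 48-hour exposures of cells grown in 96-well plates, with endpoints linearly interpolated between the two concentrations bracketing the appropriate inhibition level. At the TGI there is no net growth.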 *1 amine or outer side, *2 acyl side, *3 side chain or, on linkers, in order; H or OH if unused. Where a SMILES comes first, the peptide text is derived from it. Bridges are numbered along the chain shown (N, C = ends). [ ]: non-standard residue; d: D form. The star is where a group is joined. X59 = COc1c(N[*:1])cccc1C(=O)O[C@H](C(=O)[C@H](C)C(=O)[*:2])C(C)C; X58 = CC(C)C[C@H](C(=O)[*:2])C(C)C(=O)C1CCCN1[*:1]; NMeY = CN[C@@H](Cc1ccc(O)cc1)C(=O)O; Boc = CC(C)(C)OC(=O)*; Lac = C[C@H](O)C(=O)O; Bn = c1ccc(C*)cc1
Legend:
Assay in all cases: NCI tumour cell line growth inhibition, 48 h
[1] = test system: CAKI-1 renal
[2] = test system: OVCAR-5 ovarian
[3] = test system: COLO 205 colon
[4] = test system: KM12 colon
[5] = test system: CCRF-CEM leukemia
[6] = test system: A498 renal
[7] = test system: EKVX NSCLC
[8] = test system: RXF 393 renal
[9] = test system: M14 melanoma
[10] = test system: OVCAR-8 ovarian
[11] = test system: SNB-75 CNS
[12] = test system: SR leukemia
[13] = test system: MDA-MB-231 breast
[14] = test system: BT-549 breast

Compound | TGI [1] [µM] | TGI [2] [µM] | TGI [3] [µM] | TGI [4] [µM] | TGI [5] [µM] | TGI [6] [µM] | TGI [7] [µM] | TGI [8] [µM] | TGI [9] [µM] | TGI [10] [µM] | TGI [11] [µM] | TGI [12] [µM] | TGI [13] [µM] | TGI [14] [µM]
C=CCN(N=O)C(=O)N(CCCCC(NC(C)=O)C(=O)NCc1ccccc1)Cc1ccccc1 (stereo not drawn) | > 100 | > 100 | 51.7 | > 100 | 80.4 | > 100 | > 100 | 93.1 | 62.4 | > 100 | > 100 |  |  | 
CNc1cccc2c1C(C)C[C@]1(C)C(=O)Nc3ccccc3[C@H]21 (stereo partly drawn) | 63.7 | > 100 | > 100 | 87.1 | > 100 | 43.6 | > 100 | 50 | 41.5 | 39.1 | 28.3 | 43.3 | 42.9 | 
COC(=O)C(CC(C)C)NC(=O)CNC(=O)C(Cc1ccc(OCc2ccccc2)cc1)NC(=O)C(COCc1ccccc1)NC(=O)OC(C)(C)C (stereo not drawn) (Boc-S(Bn)Y(Bn)GL-OMe; configuration not given here) | > 100 | > 100 | > 100 | > 100 |  |  | > 100 | > 100 | > 100 | > 100 | > 100 | > 100 | > 100 | > 100
COc1ccc(-c2cc(=O)c3ccc(F)cc3[nH]2)cc1 |  | > 100 | > 100 | > 100 | > 100 |  | > 100 | > 100 | > 100 | > 100 | > 100 | > 100 |  | 
O=C1O/C(=C(/Cl)c2c3ccccc3cc3ccccc23)c2ccccc21 | > 100 | > 100 | 49.2 | 17.3 | 59.1 | 80.2 | > 100 | 96.4 | 53.8 | 69.9 | 36.6 | 35.6 | 40.3 | 
CCN(CC)c1ccc2cc(-c3csc(C)n3)c(=O)oc2c1 | > 100 | > 100 | > 100 | > 100 | > 100 |  | > 100 | > 100 | > 100 |  | 9.42 | > 100 | > 100 | > 100
COC(=O)C1=C(C(=O)OC)C(OO)(c2ccccc2)OC1=O (stereo not drawn) | > 100 | > 100 | > 100 | > 100 | > 100 |  | > 100 | > 100 | > 100 | > 100 | > 100 | > 100 | > 100 | > 100
N#Cc1nc(-c2ccc(-c3nc(C#N)c(N)o3)cc2)oc1N | > 10 |  | > 10 | > 10 | > 10 |  | > 10 | > 10 | > 10 | > 10 | > 10 | > 10 | > 10 | > 10
COc1ccc(C[C@H]2C(=O)O[C@H](C)[C@H](NC(=O)[C@@H](CC(C)C)C(C)C(=O)C3CCCN3C(=O)[C@H](C)O)C(=O)Nc3cccc(c3OC)C(=O)O[C@@H](C(C)C)C(=O)[C@H](C)C(=O)N[C@@H](CC(C)C)C(=O)N3CCC[C@H]3C(=O)N2C)cc1 (stereo partly drawn) (H-[Lac][X58]T[X59]LP[NMeY](Me); ester 3-C) | > 12.5 | > 12.5 | > 12.5 | > 12.5 |  |  | > 12.5 | > 12.5 | > 12.5 | > 12.5 | > 12.5 | > 12.5 | > 12.5 | > 12.5

Reference: PubChem BioAssay (NCI)
